Laboratory results reported in patent publication US9102678B2, “Compounds and methods for inhibiting mitotic progression” (Millennium Pharmaceuticals, Inc., priority 2004, dated 2015).

molecular target: T1, recombinant murine Aurora A enzyme (Mus musculus, UniProt P97477); experiment: Aurora A DELFIA Kinase Assay; type: biochemical; settings: mouse Aurora A, 250 μM ATP; threshold less than or equal to 100 nM; read-out: IC50
T1 construct: hexahistidine (His6) (N); made in house; host or cells: insect cells, baculovirus (Bac-to-Bac, Invitrogen)
From the text: Recombinant mouse Aurora A with an amino-terminus hexahistidine tag (His-Aurora A) was expressed using a standard baculovirus vector and insect cell expression system (Bac-to-Bac®, Invitrogen).
Soluble, recombinant mouse Aurora A was purified from insect cells using Ni-NTA agarose (Qiagen) as described by the manufacturer and further purified over an S75 size exclusion column (Amersham Pharmacia Biotech).
Aurora A DELFIA® Kinase Assay
The enzymatic reaction mixture, with and without Aurora inhibitors, was incubated for 15 minutes at room temperature before termination with 100 μL of stop buffer (1% BSA, 0.05% Surfact-AMPS-20, and 100 mM EDTA). A total of 100 μL of the enzyme reaction mixture was transferred to wells of a Neutravidin-coated 96-well plate (Pierce) and incubated at room temperature for 30 minutes. The wells were washed with wash buffer (25 mM Tris, 150 mM sodium chloride, and 0.1% Tween 20) and incubated for 1 hour with 100 μL of antibody reaction mixture containing 1% BSA, 0.05% Surfact-AMPS-20, anti-phospho-PKA rabbit polyclonal antibody (1:2000, New England Biolabs), and europium labeled anti-rabbit IgG (1:2000, Perkin Elmer). The wells were washed and then the bound europium was liberated using 100 μL of Enhancement Solution (Perkin Elmer). Quantification of europium was done using a Wallac™ EnVision (Perkin Elmer).

T1 sequence (P97477 whole entry): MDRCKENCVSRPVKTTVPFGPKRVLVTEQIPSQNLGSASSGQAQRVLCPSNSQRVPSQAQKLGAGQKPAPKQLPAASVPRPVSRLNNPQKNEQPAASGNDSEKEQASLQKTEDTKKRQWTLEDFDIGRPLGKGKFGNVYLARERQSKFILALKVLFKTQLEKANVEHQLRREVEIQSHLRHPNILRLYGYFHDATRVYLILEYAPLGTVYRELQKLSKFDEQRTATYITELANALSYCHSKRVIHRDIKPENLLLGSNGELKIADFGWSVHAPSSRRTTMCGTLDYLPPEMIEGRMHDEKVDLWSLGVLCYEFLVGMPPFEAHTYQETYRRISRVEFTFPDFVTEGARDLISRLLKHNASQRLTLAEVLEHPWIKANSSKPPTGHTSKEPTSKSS

| Compound | IC50 [nM] |
| --- | --- |
| CN1CCN(C(=O)c2ccc(Nc3ncc4c(n3)-c3ccc(Cl)cc3C(c3ccccc3Cl)=NC4)cc2)CC1 [Compound I-10, {4-[9-Chloro-7-(2-chloro-phenyl)-5H-benzo[c]pyrimido[4,5-e]azepin-2-ylamino]-phenyl}-(4-methyl-piperazin-1-yl)-methanone] | ≤ 100 |
| Cc1ccccc1C1=NCc2cnc(Nc3ccc(C(=O)N4CCN(C)CC4)cc3)nc2-c2ccc(Cl)cc21 [Compound I-11, [4-(9-Chloro-7-o-tolyl-5H-benzo[c]pyrimido[4,5-e]azepin-2-ylamino)-phenyl]-(4-methyl-piperazin-1-yl)-methanone] | ≤ 100 |
| COc1ccccc1C1=NCc2cnc(Nc3ccc(C(=O)N4CCN(C)CC4)cc3)nc2-c2ccc(Cl)cc21 [Compound I-12, {4-[9-Chloro-7-(2-methoxy-phenyl)-5H-benzo[c]pyrimido[4,5-e]azepin-2-ylamino]-phenyl}-(4-methyl-piperazin-1-yl)-methanone] | ≤ 100 |
| Cc1ccc2c(c1)C(c1ccccc1F)=NCc1cnc(Nc3ccc(C(=O)N4CCN(C)CC4)cc3)nc1-2 [Compound I-14, {4-[7-(2-Fluoro-phenyl)-9-methyl-5H-benzo[c]pyrimido[4,5-e]azepin-2-ylamino]-phenyl}-(4-methyl-piperazin-1-yl)-methanone] | ≤ 100 |
| CN1CCN(C(=O)Cc2cccc(Nc3ncc4c(n3)-c3ccc(Cl)cc3C(c3ccccc3F)=NC4)c2)CC1 [Compound I-15, 2-{3-[9-Chloro-7-(2-fluoro-phenyl)-5H-benzo[c]pyrimido[4,5-e]azepin-2-ylamino]-phenyl}-1-(4-methyl-piperazin-1-yl)-ethanone] | ≤ 100 |
| CN1CCN(CCCNC(=O)c2ccc(Nc3ncc4c(n3)-c3ccc(Cl)cc3C(c3ccccc3Cl)=NC4)cc2)CC1 [Compound I-20, 4-[9-Chloro-7-(2-chloro-phenyl)-5H-benzo[c]pyrimido[4,5-e]azepin-2-ylamino]-N-[3-(4-methyl-piperazin-1-yl)-propyl]-benzamide] | ≤ 100 |
| Cc1ccccc1C1=NCc2cnc(Nc3ccc(C(=O)NCCCN4CCN(C)CC4)cc3)nc2-c2ccc(Cl)cc21 [Compound I-21, 4-(9-Chloro-7-o-tolyl-5H-benzo[c]pyrimido[4,5-e]azepin-2-ylamino)-N-[3-(4-methyl-piperazin-1-yl)-propyl]-benzamide] | ≤ 100 |
| COc1ccccc1C1=NCc2cnc(Nc3ccc(C(=O)NCCCN4CCN(C)CC4)cc3)nc2-c2ccc(Cl)cc21 [Compound I-22, 4-[9-Chloro-7-(2-methoxy-phenyl)-5H-benzo[c]pyrimido[4,5-e]azepin-2-ylamino]-N-[3-(4-methyl-piperazin-1-yl)-propyl]-benzamide] | ≤ 100 |
| Cc1ccc2c(c1)C(c1ccccc1F)=NCc1cnc(Nc3ccc(C(=O)NCCCN4CCN(C)CC4)cc3)nc1-2 [Compound I-24, 4-[7-(2-Fluoro-phenyl)-9-methyl-5H-benzo[c]pyrimido[4,5-e]azepin-2-ylamino]-N-[3-(4-methyl-piperazin-1-yl)-propyl]-benzamide] | ≤ 100 |
| CN1CCN(CCCNC(=O)Cc2cccc(Nc3ncc4c(n3)-c3ccc(Cl)cc3C(c3ccccc3F)=NC4)c2)CC1 [Compound I-25, 2-{3-[9-Chloro-7-(2-fluoro-phenyl)-5H-benzo[c]pyrimido[4,5-e]azepin-2-ylamino]-phenyl}-N-[3-(4-methyl-piperazin-1-yl)-propyl]-acetamide] | ≤ 100 |
| O=C(c1ccc(Nc2ncc3c(n2)-c2ccc(Cl)cc2C(c2ccccc2Cl)=NC3)cc1)N1CCOCC1 [Compound I-28, {4-[9-Chloro-7-(2-chloro-phenyl)-5H-benzo[c]pyrimido[4,5-e]azepin-2-ylamino]-phenyl}-morpholin-4-yl-methanone] | ≤ 100 |
| O=C(NCCN1CCOCC1)c1ccc(Nc2ncc3c(n2)-c2ccc(Cl)cc2C(c2ccccc2Cl)=NC3)cc1 [Compound I-30, 4-[9-Chloro-7-(2-chloro-phenyl)-5H-benzo[c]pyrimido[4,5-e]azepin-2-ylamino]-N-(2-morpholin-4-yl-ethyl)-benzamide] | ≤ 100 |

Next, values leading:

| IC50 [nM] | Compound |
| --- | --- |
| ≤ 100 | CNCCNC(=O)c1ccc(Nc2ncc3c(n2)-c2ccc(Cl)cc2C(c2ccccc2F)=NC3)cc1 [Compound I-1, 4-[9-Chloro-7-(2-fluoro-phenyl)-5H-benzo[c]pyrimido[4,5-e]azepin-2-ylamino]-N-(2-methylamino-ethyl)-benzamide] |
| ≤ 100 | CN(CCN)C(=O)c1ccc(Nc2ncc3c(n2)-c2ccc(Cl)cc2C(c2ccccc2F)=NC3)cc1 [Compound I-2, N-(2-Amino-ethyl)-4-[9-chloro-7-(2-fluoro-phenyl)-5H-benzo[c]pyrimido[4,5-e]azepin-2-ylamino]-N-methyl-benzamide] |
| ≤ 100 | CNCCN(C)C(=O)c1ccc(Nc2ncc3c(n2)-c2ccc(Cl)cc2C(c2ccccc2F)=NC3)cc1 [Compound I-3, 4-[9-Chloro-7-(2-fluoro-phenyl)-5H-benzo[c]pyrimido[4,5-e]azepin-2-ylamino]-N-methyl-N-(2-methylamino-ethyl)-benzamide] |
| ≤ 100 | CN(C)CCNC(=O)c1ccc(Nc2ncc3c(n2)-c2ccc(Cl)cc2C(c2ccccc2F)=NC3)cc1 [Compound I-4, 4-[9-Chloro-7-(2-fluoro-phenyl)-5H-benzo[c]pyrimido[4,5-e]azepin-2-ylamino]-N-(2-dimethylamino-ethyl)-benzamide] |
| ≤ 100 | CN(C)CCN(C)C(=O)c1ccc(Nc2ncc3c(n2)-c2ccc(Cl)cc2C(c2ccccc2F)=NC3)cc1 [Compound I-5, 4-[9-Chloro-7-(2-fluoro-phenyl)-5H-benzo[c]pyrimido[4,5-e]azepin-2-ylamino]-N-(2-dimethylamino-ethyl)-N-methyl-benzamide] |
| ≤ 100 | CN(C)CCCNC(=O)c1ccc(Nc2ncc3c(n2)-c2ccc(Cl)cc2C(c2ccccc2F)=NC3)cc1 [Compound I-6, 4-[9-Chloro-7-(2-fluoro-phenyl)-5H-benzo[c]pyrimido[4,5-e]azepin-2-ylamino]-N-(3-dimethylamino-propyl)-benzamide] |
| ≤ 100 | CN(C)CCCN(C)C(=O)c1ccc(Nc2ncc3c(n2)-c2ccc(Cl)cc2C(c2ccccc2F)=NC3)cc1 [Compound I-7, 4-[9-Chloro-7-(2-fluoro-phenyl)-5H-benzo[c]pyrimido[4,5-e]azepin-2-ylamino]-N-(3-dimethylamino-propyl)-N-methyl-benzamide] |
| ≤ 100 | O=C(c1ccc(Nc2ncc3c(n2)-c2ccc(Cl)cc2C(c2ccccc2F)=NC3)cc1)N1CCNCC1 [Compound I-8, {4-[9-Chloro-7-(2-fluoro-phenyl)-5H-benzo[c]pyrimido[4,5-e]azepin-2-ylamino]-phenyl}-piperazin-1-yl-methanone] |
| ≤ 100 | CN1CCN(C(=O)c2ccc(Nc3ncc4c(n3)-c3ccc(Cl)cc3C(c3ccccc3F)=NC4)cc2)CC1 [Compound I-9, {4-[9-Chloro-7-(2-fluoro-phenyl)-5H-benzo[c]pyrimido[4,5-e]azepin-2-ylamino]-phenyl}-(4-methyl-piperazin-1-yl)-methanone] |
| ≤ 100 | O=C(NC1CCNCC1)c1ccc(Nc2ncc3c(n2)-c2ccc(Cl)cc2C(c2ccccc2F)=NC3)cc1 [Compound I-16, 4-[9-Chloro-7-(2-fluoro-phenyl)-5H-benzo[c]pyrimido[4,5-e]azepin-2-ylamino]-N-piperidin-4-yl-benzamide] |
| ≤ 100 | NC1CCN(C(=O)c2ccc(Nc3ncc4c(n3)-c3ccc(Cl)cc3C(c3ccccc3F)=NC4)cc2)CC1 [Compound I-17, (4-Amino-piperidin-1-yl)-{4-[9-chloro-7-(2-fluoro-phenyl)-5H-benzo[c]pyrimido[4,5-e]azepin-2-ylamino]-phenyl}-methanone] |
| ≤ 100 | CN(C)C1CCN(C(=O)c2ccc(Nc3ncc4c(n3)-c3ccc(Cl)cc3C(c3ccccc3F)=NC4)cc2)CC1 [Compound I-18, {4-[9-Chloro-7-(2-fluoro-phenyl)-5H-benzo[c]pyrimido[4,5-e]azepin-2-ylamino]-phenyl}-(4-dimethylamino-piperidin-1-yl)-methanone] |
| ≤ 100 | CN1CCN(CCCNC(=O)c2ccc(Nc3ncc4c(n3)-c3ccc(Cl)cc3C(c3ccccc3F)=NC4)cc2)CC1 [Compound I-19, 4-[9-Chloro-7-(2-fluoro-phenyl)-5H-benzo[c]pyrimido[4,5-e]azepin-2-ylamino]-N-[3-(4-methyl-piperazin-1-yl)-propyl]-benzamide] |
| ≤ 100 | O=C(c1ccc(Nc2ncc3c(n2)-c2ccc(Cl)cc2C(c2ccccc2F)=NC3)cc1)N1CCOCC1 [Compound I-26, {4-[9-Chloro-7-(2-fluoro-phenyl)-5H-benzo[c]pyrimido[4,5-e]azepin-2-ylamino]-phenyl}-morpholin-4-yl-methanone] |
| ≤ 100 | O=C(c1ccc(Nc2ncc3c(n2)-c2ccc(Cl)cc2C(c2ccccc2F)=NC3)cc1)N(CCO)CCO [Compound I-27, 4-[9-Chloro-7-(2-fluoro-phenyl)-5H-benzo[c]pyrimido[4,5-e]azepin-2-ylamino]-N,N-bis-(2-hydroxy-ethyl)-benzamide] |
| ≤ 100 | O=C(NCCN1CCOCC1)c1ccc(Nc2ncc3c(n2)-c2ccc(Cl)cc2C(c2ccccc2F)=NC3)cc1 [Compound I-29, 4-[9-Chloro-7-(2-fluoro-phenyl)-5H-benzo[c]pyrimido[4,5-e]azepin-2-ylamino]-N-(2-morpholin-4-yl-ethyl)-benzamide] |
